Columns and labels:
Format in all cases: functional
[1] = system: IGROV-1; experiment: Cytotoxicity against human IGROV1 cells assessed as cell growth at 10 uM after 48 hrs by sulforhodamine B assay relative to control; details: IGROV-1, 48 h, read-out: Activity
[2] = system: NCI-H322M; experiment: Cytotoxicity against human NCI-H322M cells assessed as cell growth at 10 uM after 48 hrs by sulforhodamine B assay relative to control; details: read-out: Activity
[3] = system: SF-539; experiment: Cytotoxicity against human SF539 cells assessed as cell growth at 1 uM after 48 hrs by sulforhodamine B assay relative to control; details: SF-539, 48 h, read-out: Activity
[4] = system: SF-539; experiment: Cytotoxicity against human SF539 cells assessed as cell growth at 0.01 uM after 48 hrs by sulforhodamine B assay relative to control; details: SF-539, 48 h, read-out: Activity
[5] = system: OVCAR-5; experiment: Cytotoxicity against human OVCAR5 cells assessed as cell growth at 10 uM after 48 hrs by sulforhodamine B assay relative to control; details: OVCAR-5, 48 h, read-out: Activity
[6] = system: SW-620; experiment: Cytotoxicity against human SW620 cells assessed as cell growth at 0.01 uM after 48 hrs by sulforhodamine B assay relative to control; details: SW-620, 48 h, read-out: Activity
[7] = system: MDA-MB-231; experiment: Cytotoxicity against human MDA-MB-231 cells assessed as cell growth at 100 uM after 48 hrs by sulforhodamine B assay relative to control; details: MDA-MB-231, 48 h, read-out: Activity
[8] = system: T47D; experiment: Cytotoxicity against human T47D cells assessed as growth inhibition after 48 hrs by sulforhodamine B assay
[9] = system: HCT-15; experiment: Cytotoxicity against human HCT15 cells assessed as cell growth at 100 uM after 48 hrs by sulforhodamine B assay relative to control; details: HCT-15, 48 h, read-out: Activity
[10] = system: UO-31; experiment: Cytotoxicity against human UO31 cells assessed as cell growth at 0.01 uM after 48 hrs by sulforhodamine B assay relative to control; details: UO-31, 48 h, read-out: Activity
[11] = system: T47D; experiment: Cytotoxicity against human T47D cells assessed as cell growth at 1 uM after 48 hrs by sulforhodamine B assay relative to control; details: read-out: Activity
[12] = system: HCT-116; experiment: Cytotoxicity against human HCT116 cells assessed as cell growth at 100 uM after 48 hrs by sulforhodamine B assay relative to control; details: HCT-116, 48 h, read-out: Activity
[13] = system: OVCAR-3; experiment: Cytotoxicity against human OVCAR3 cells assessed as growth inhibition after 48 hrs by sulforhodamine B assay; details: OVCAR-3, 48 h
[14] = system: M14; experiment: Cytotoxicity against human M14 cells assessed as cell growth at 10 uM after 48 hrs by sulforhodamine B assay relative to control; details: M14, 48 h, read-out: Activity
[15] = system: SK-MEL-5; experiment: Cytotoxicity against human SK-MEL-5 cells assessed as cell growth at 10 uM after 48 hrs by sulforhodamine B assay relative to control; details: SK-MEL-5, 48 h, read-out: Activity
[16] = system: M14; experiment: Cytotoxicity against human M14 cells assessed as cell growth at 0.01 uM after 48 hrs by sulforhodamine B assay relative to control; details: M14, 48 h, read-out: Activity
[17] = system: KM12; experiment: Cytotoxicity against human KM12 cells assessed as growth inhibition after 48 hrs by sulforhodamine B assay; details: KM12, 48 h
[18] = system: BT-549; experiment: Cytotoxicity against human BT549 cells assessed as growth inhibition after 48 hrs by sulforhodamine B assay; details: BT-549, 48 h
[19] = system: RXF 393; experiment: Cytotoxicity against human RXF393 cells assessed as cell growth at 100 uM after 48 hrs by sulforhodamine B assay relative to control; details: RXF 393, 48 h, read-out: Activity
[20] = system: HT-29; experiment: Cytotoxicity against human HT-29 cells assessed as cell growth at 10 uM after 48 hrs by sulforhodamine B assay relative to control; details: HT-29, 48 h, read-out: Activity
[21] = system: SK-OV-3; experiment: Cytotoxicity against human SKOV3 cells assessed as cell growth at 1 uM after 48 hrs by sulforhodamine B assay relative to control; details: SK-OV-3, 48 h, read-out: Activity
[22] = system: M14; experiment: Cytotoxicity against human M14 cells assessed as cell growth at 100 uM after 48 hrs by sulforhodamine B assay relative to control; details: M14, 48 h, read-out: Activity
[23] = system: HT-29; experiment: Cytotoxicity against human HT-29 cells assessed as cell growth at 0.1 uM after 48 hrs by sulforhodamine B assay relative to control; details: HT-29, 48 h, read-out: Activity
[24] = system: T47D; experiment: Cytotoxicity against human T47D cells assessed as cell growth at 10 uM after 48 hrs by sulforhodamine B assay relative to control; details: read-out: Activity
[25] = system: HOP-62; experiment: Cytotoxicity against human HOP62 cells assessed as growth inhibition after 48 hrs by sulforhodamine B assay; details: HOP-62, 48 h
[26] = system: M14; experiment: Cytotoxicity against human M14 cells assessed as cell growth at 1 uM after 48 hrs by sulforhodamine B assay relative to control; details: M14, 48 h, read-out: Activity
[27] = system: SN12C; experiment: Cytotoxicity against human SN12C cells assessed as growth inhibition after 48 hrs by sulforhodamine B assay
[28] = system: SN12C; experiment: Cytotoxicity against human SN12C cells assessed as cell growth at 0.01 uM after 48 hrs by sulforhodamine B assay relative to control; details: read-out: Activity
[29] = system: RXF 393; experiment: Cytotoxicity against human RXF393 cells assessed as cell growth at 0.01 uM after 48 hrs by sulforhodamine B assay relative to control; details: RXF 393, 48 h, read-out: Activity
[30] = system: DU-145; experiment: Cytotoxicity against human DU145 cells assessed as cell growth at 100 uM after 48 hrs by sulforhodamine B assay relative to control; details: DU-145, 48 h, read-out: Activity
[31] = system: 786-0; experiment: Cytotoxicity against human 786-0 cells assessed as cell growth at 100 uM after 48 hrs by sulforhodamine B assay relative to control; details: 786-0, 48 h, read-out: Activity
[32] = system: SNB-19; experiment: Cytotoxicity against human SNB19 cells assessed as cell growth at 100 uM after 48 hrs by sulforhodamine B assay relative to control; details: SNB-19, 48 h, read-out: Activity
[33] = system: NCI-H226; experiment: Cytotoxicity against human NCI-H226 cells assessed as growth inhibition after 48 hrs by sulforhodamine B assay; details: NCI-H226, 48 h
[34] = system: SR; experiment: Cytotoxicity against human SR cells assessed as cell growth at 0.1 uM after 48 hrs by sulforhodamine B assay relative to control; details: read-out: Activity
[35] = system: OVCAR-5; experiment: Cytotoxicity against human OVCAR5 cells assessed as cell growth at 0.1 uM after 48 hrs by sulforhodamine B assay relative to control; details: OVCAR-5, 48 h, read-out: Activity
[36] = system: A498; experiment: Cytotoxicity against human A498 cells assessed as cell growth at 0.01 uM after 48 hrs by sulforhodamine B assay relative to control; details: A498, 48 h, read-out: Activity
[37] = system: 786-0; experiment: Cytotoxicity against human 786-0 cells assessed as cell growth at 0.01 uM after 48 hrs by sulforhodamine B assay relative to control; details: 786-0, 48 h, read-out: Activity

SMILES: COc1cc2c(cc1OC)C(=O)/C(=C/c1cc(-c3ccc4c(c3)OCO4)n[nH]1)C2
- growth at 10 µM [1]: -44%
- growth at 10 µM [2]: -90%
- growth at 1 µM [3]: 67%
- growth at 0.01 µM [4]: 100%
- growth at 10 µM [5]: -92%
- growth at 0.01 µM [6]: 98%
- growth at 100 µM [7]: -96%
- GI50 [8]: 1.31 µM
- LC50 [8]: 5.62 µM
- TGI [8]: 2.72 µM
- growth at 100 µM [9]: -69%
- growth at 0.01 µM [10]: 86%
- growth at 1 µM [11]: 69%
- growth at 100 µM [12]: -52%
- GI50 [13]: 1.41 µM
- LC50 [13]: 5.58 µM
- TGI [13]: 2.8 µM
- growth at 10 µM [14]: -87%
- growth at 10 µM [15]: -98%
- growth at 0.01 µM [16]: 99%
- GI50 [17]: 1.29 µM
- LC50 [17]: 5.75 µM
- TGI [17]: 2.73 µM
- GI50 [18]: 1.62 µM
- LC50 (concentration killing 50% of cells) [18]: 5.71 µM
- TGI [18]: 3.04 µM
- growth at 100 µM [19]: -92%
- growth at 10 µM [20]: -77%
- growth at 1 µM [21]: 109%
- growth at 100 µM [22]: -80%
- growth at 0.1 µM [23]: 103%
- growth at 10 µM [24]: -90%
- GI50 [25]: 1.53 µM
- LC50 [25]: 5.72 µM
- TGI [25]: 2.96 µM
- growth at 1 µM [26]: 98%
- GI50 [27]: 1.59 µM
- LC50 [27]: 5.62 µM
- TGI [27]: 2.99 µM
- growth at 0.01 µM [28]: 95%
- growth at 0.01 µM [29]: 97%
- growth at 100 µM [30]: -88%
- growth at 100 µM [31]: -93%
- growth at 100 µM [32]: -94%
- GI50 [33]: 1.55 µM
- TGI [33]: 3.32 µM
- growth at 0.1 µM [34]: 98%
- growth at 0.1 µM [35]: 92%
- growth at 0.01 µM [36]: 80%
- growth at 0.01 µM [37]: 96%

From ChEMBL document CHEMBL4138123, “Design, synthesis and biological evaluation of novel pyrazolochalcones as potential modulators of PI3K/Akt/mTOR pathway and inducers of apoptosis in breast cancer cells” (Eur J Med Chem, 2017)
